Test: qIT: rate of reaction with glutathione (intrinsic reactivity)
Assay type: physicochemical
Conditions: fragment 0.5 mM, glutathione 5 μM
Method: Previously we described a fluorescence‐based platform for screening cysteine‐targeting covalent fragments called quantitative irreversible tethering (qIT). ^[19] The method measures and compares the rate of reactions of individual fragments with the protein‐of‐interest (POI) and GSH (Figure 2a and b).
Figure 2 Comparison of previous and current applications of Quantitative irreversible tethering (qIT). a) Overview of rate determination. A cysteine‐containing biomolecule is treated with covalent fragments under pseudo‐first‐order conditions. Reaction progress is followed by discrete measurement of free cysteine concentration by using the fluorogenic probe CPM, and rate constants (k obs) are derived from exponential regression analysis. b) Comparison of the reactivity profile of each fragment with the POI and GSH typically classes them as unreactive, reactive but non‐selective or reactive and selective. c) Quantification of kinetic POI/GSH selectivity facilitates hit identification. d) The observed rate of reaction between the POI and hit fragment is determined at a range of ligand concentrations by using qIT. Subsequent hyperbolic regression analysis is used to derive K i and k inact to facilitate comprehensive covSAR analysis. […]

Compound: C=CC(=O)N1CCCc2cc(C(=O)OC)ccc21 [compound 1]
- GSH: kobs/[I]: 0.02 M⁻¹ s⁻¹
